Source: patent US9040568B2, “Pharmaceutical compositions for the treatment of pain” (AbbVie Inc., priority 2009, dated 2015)

Key:
[1] = tested on: post-operative pain (skin incision of the hind paw); experiment: Incision model of postoperative pain (mechanical allodynia, von Frey); assay type: in vivo, rat
Experimental: Paw incision was performed under isoflurane (2-3%) anesthesia and followed procedures previously described (Brennan et al., 1996). Briefly, the plantar aspect of the left hindpaw was placed through a hole in a sterile plastic drape. A 1-cm longitudinal incision was made through the skin and fascia, starting 0.5 cm from the proximal edge of the heel and extending towards the toes, the plantar muscle was elevated and injured longitudinally leaving the muscle origin and insertion points intact. After hemostasis with gentle pressure, the skin was apposed with 2 mattress sutures of 5-0 nylon. Mechanical allodynia was measured using calibrated von Frey filaments (Stoelting, Wood Dale, Ill.) as previously described (Chaplan et al., 1994) in all animals 2 h following surgery. Rats were placed into inverted individual plastic containers (20×12.5×20 cm) on top of a suspended wire mesh grid, and acclimated to the test chambers for 20 min. The von Frey filaments were presented perpendicularly to the plantar surface pointing towards the medial side of the incision (Brennan et al., 1996), and then held in this position for approximately 8 s with enough force to cause a slight bend in the filament. Positive responses included an abrupt withdrawal of the hind paw from the stimulus, or flinching behavior immediately following removal of the stimulus. A 50% paw withdrawal threshold (PWT) was determined using an up-down procedure (Dixon, 1980). Mechanical allodynia was assessed 30 min following i.p. compound administration.

[2] = target: T1, human α3β4 nicotinic acetylcholine receptor subtype expressed in HEK-293 cells (Homo sapiens, UniProt P30926+P32297); experiment: Calcium flux assay (FLIPR) in HEK-293 cells expressing human α3β4; assay type: cell-based; details: agonists Compound A and Compound B
T1 construct: expressed in transfected cells
Experimental: Calcium Flux Assays Using Cells Expressing nAChR Subtypes
Human embryonic kidney (HEK) 293 cells stably expressing human α4β2 or α3β4 combinations are grown to confluency in 162 cm^2 tissue culture flasks in DMEM media supplemented with 10% FBS and 25 μg/ml zeocin and 200 μg/ml hygromycin B. IMR-32 neuroblastoma cells (ATCC) are grown to confluency in 162 cm^2 tissue culture flasks in minimum essential media supplemented with 10% FBS and 1 mM sodium pyruvate, 1% non-essential amino acids and 1% antibiotic-antimycotic. […] Calcium flux was measured using calcium-3 assay kit (Molecular Devices, Sunnyvale, Calif.) or fluo-4 (Invitrogen). […] The cells were loaded with 100 μl of the dye per well and incubated at room temperature for up to one hour for HEK 293 clonal stable cell lines or 30 minutes-45 minutes at 37° C. for IMR-32 cells Fluorescence measurements were read simultaneously from all the wells by a Fluorometic Imaging Plate Reader (FLIPR) at an excitation wavelength of 480 nm and an emission wavelength of 520 nm. Baseline fluorescence was measured for the first 6 seconds at which 3× concentrations of modulator/test compounds were added to the cell plate at 50 μl and incubated for five minutes. The fluorescence intensity was captured every second for the first 1 minute followed by every 5 seconds for an additional 4 minutes. […]

emesis in ferrets = experiment: Emesis in ferrets; assay type: in vivo, ferret
Experimental: Fasted male ferrets (Marshall BioResources, North Rose, N.Y.) weighing between 1.0 and 1.7 kg are used to determine the emetic effects. α4β2 PAM (Compound 1) was administered first and thirty minutes later, Compound A was administered at various doses. […] The percentage of animals that experienced emesis at a given dose was recorded.

T1 sequence (P32297 32-505): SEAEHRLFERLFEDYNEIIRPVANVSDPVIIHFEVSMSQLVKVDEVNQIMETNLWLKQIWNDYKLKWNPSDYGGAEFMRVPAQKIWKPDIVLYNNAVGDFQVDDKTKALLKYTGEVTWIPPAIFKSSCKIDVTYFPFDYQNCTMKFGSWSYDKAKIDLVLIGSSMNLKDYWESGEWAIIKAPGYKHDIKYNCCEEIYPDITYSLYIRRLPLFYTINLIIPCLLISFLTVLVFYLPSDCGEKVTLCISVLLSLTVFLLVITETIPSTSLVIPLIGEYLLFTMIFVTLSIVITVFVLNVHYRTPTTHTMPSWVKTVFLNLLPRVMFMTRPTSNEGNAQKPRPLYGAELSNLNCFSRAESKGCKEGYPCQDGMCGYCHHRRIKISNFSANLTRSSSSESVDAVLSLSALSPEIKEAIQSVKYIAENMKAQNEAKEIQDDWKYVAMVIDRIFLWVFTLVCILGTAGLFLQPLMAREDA
T1 sequence (P30926 22-498): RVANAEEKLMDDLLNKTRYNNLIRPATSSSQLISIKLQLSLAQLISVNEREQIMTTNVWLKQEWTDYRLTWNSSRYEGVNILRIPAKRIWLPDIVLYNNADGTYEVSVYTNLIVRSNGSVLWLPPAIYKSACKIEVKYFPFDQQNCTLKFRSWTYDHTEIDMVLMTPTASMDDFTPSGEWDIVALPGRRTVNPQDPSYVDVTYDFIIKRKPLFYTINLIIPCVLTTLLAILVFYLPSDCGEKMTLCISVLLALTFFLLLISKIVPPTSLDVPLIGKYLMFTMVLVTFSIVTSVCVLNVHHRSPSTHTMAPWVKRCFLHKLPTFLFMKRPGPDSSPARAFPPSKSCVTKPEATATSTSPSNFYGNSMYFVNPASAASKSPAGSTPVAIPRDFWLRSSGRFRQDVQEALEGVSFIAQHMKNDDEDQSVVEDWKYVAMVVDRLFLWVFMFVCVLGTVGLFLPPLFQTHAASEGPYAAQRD

SMILES: Clc1ccc(OC[C@H]2CCN2)cn1 [Compound A, 5-[(2R)-azetidin-2-ylmethoxy]-2-chloropyridine]
- percent reversal of mechanical allodynia ([1]; Compound A 10 nmol/kg combined with Compound 1 (3.5 μmol/kg)): 22±14%
- PWT ([1]; Compound A 10 nmol/kg in the presence of Compound 1 (3.5 μmol/kg)): 5.0 ± 1.9 g
- percent reversal of mechanical allodynia ([1]; Compound A 30 nmol/kg combined with Compound 1 (3.5 μmol/kg)): 54±16%
- PWT ([1]; Compound A 30 nmol/kg in the presence of Compound 1 (3.5 μmol/kg)): 9.2 ± 2.1 g
- percent reversal of mechanical allodynia ([1]; Compound A 100 nmol/kg combined with Compound 1 (3.5 μmol/kg)): 85±10%
- PWT ([1]; Compound A 100 nmol/kg in the presence of Compound 1 (3.5 μmol/kg)): 13.1 ± 1.2 g
- PWT ([1]; Compound A alone, 100 nmol/kg): 6.0 ± 1.0 g
- percent reversal of mechanical allodynia ([1]; Compound A alone, 100 nmol/kg): 25±8%
- PWT ([1]; Compound A alone, 300 nmol/kg): 12.0 ± 1.6 g
- percent reversal of mechanical allodynia ([1]; Compound A alone, 300 nmol/kg): 75±12%
- ED50 ([1]; Rattus norvegicus, Compound A alone, read-out: ED50 (reversal of mechanical allodynia)): 0.165 µmol/kg
- leftward shift in the DRC of Compound A ([1]; co-administration of Compound 1): 6 fold

SMILES: N#Cc1cccc(-c2nc(-c3cccnc3)no2)c1 [Example 1, 3-(3-(pyridin-3-yl)-1,2,4-oxadiazol-5-yl)benzonitrile]
- alteration of PWT of the injured paw ([1]; Compound 1 alone, up to 35 μmol/kg, i.p.): produced no alteration of PWT
- effect of the PAM on the concentration responses to the agonists [2]: unable to affect the concentration responses to the agonists
- effect on the dose response curve of Compound A for emesis (emesis in ferrets; Compound 1 3.5 μmol/kg with various doses of Compound A): does not shift the dose response curve of Compound A
- emesis (emesis in ferrets; alone): does not cause emesis
